Test results from the NIST ThermoML archive (doi:10.1021/je7003758).

Assay: xn = mol fraction of the nth substance listed
Conditions: 298.15 K, Liquid

ClCCCl [1,2-dichloroethane] + CN1CCCC1=O
mass density [kg/m3]
Conditions	x2 = 0.0993	x2 = 0.2025	x2 = 0.3012	x2 = 0.4029	x2 = 0.4975	x2 = 0.5832	x2 = 0.7037	x2 = 0.7984	x2 = 0.9029
100 kPa	1220.4	1195.3	1172.3	1149.2	1128.3	1110	1085.1	1066.3	1046.2
500 kPa	1220.7	1195.6	1172.6	1149.4	1128.5	1110.2	1085.4	1066.5	1046.5
1000 kPa	1221.2	1196	1173	1149.8	1128.9	1110.5	1085.7	1066.8	1046.7
1500 kPa	1221.7	1196.5	1173.4	1150.2	1129.2	1110.9	1086	1067.1	1047
2000 kPa	1222.1	1196.9	1173.7	1150.6	1129.6	1111.2	1086.3	1067.4	1047.3
2500 kPa	1222.6	1197.3	1174.2	1150.9	1129.9	1111.5	1086.6	1067.7	1047.6
2900 kPa	–	–	1174.5	–	–	–	–	–	–
3000 kPa	1223	1197.7	–	1151.3	1130.3	1111.9	1086.9	1068	1047.8
3400 kPa	–	–	–	1151.6	–	–	–	–	–
3500 kPa	1223.5	1198.1	1174.9	–	1130.6	–	1087.2	1068.3	1048.1
3600 kPa	–	–	–	–	–	1112.2	–	–	–
4000 kPa	1223.9	1198.5	1175.3	1152	1131	1112.5	1087.6	1068.6	1048.4
4500 kPa	1224.4	1198.9	1175.7	–	1131.3	1112.8	1087.8	1068.8	1048.6
4600 kPa	–	–	–	1152.3	–	–	–	–	–
5000 kPa	1224.8	1199.3	1176.1	1152.8	1131.6	1113.2	1088.1	1069.1	1048.9
5500 kPa	1225.2	1199.8	1176.5	1153.1	1131.9	1113.5	1088.4	1069.4	1049.2
6000 kPa	1225.7	1200.2	1176.9	1153.5	1132.4	1113.8	1088.7	1069.7	1049.4
6500 kPa	1226.1	1200.6	1177.2	1153.9	1132.7	1114.1	1089	1070	1049.7
6900 kPa	–	–	–	–	–	1114.4	–	–	–
7000 kPa	1226.5	1201	1177.6	1154.2	1133	–	1089.3	1070.3	1050
7500 kPa	1227	1201.4	1178	1154.6	1133.3	1114.8	1089.6	1070.5	1050.2
7900 kPa	–	–	–	–	1133.7	–	–	–	–
8000 kPa	1227.4	1201.8	1178.4	1154.9	–	1115	1089.9	1070.9	1050.6
8500 kPa	1227.8	1202.2	1178.8	1155.3	1134.1	1115.4	1090.2	1071.1	1050.8
8900 kPa	–	1202.6	–	–	–	–	–	–	–
9000 kPa	1228.2	–	1179.2	1155.6	1134.4	1115.7	1090.5	1071.3	1051.1
9500 kPa	1228.6	1203.1	1179.6	1156	1134.7	1116	1090.8	1071.6	1051.3
9900 kPa	–	–	1180	–	1135	–	–	–	–
10000 kPa	1229.2	1203.6	–	1156.4	–	1116.4	1091.1	1072	1051.7
10500 kPa	1229.6	1203.9	1180.4	1156.7	1135.4	1116.7	1091.4	1072.2	1051.9
10900 kPa	–	–	1180.7	–	–	1117	–	–	–
11000 kPa	1230	1204.3	–	1157.1	1135.7	–	1091.7	1072.5	1052.2
11500 kPa	1230.4	1204.6	1181.1	1157.5	1136.1	1117.4	1092	1072.8	1052.4
11900 kPa	–	–	–	–	1136.4	–	–	–	–
12000 kPa	1230.8	1205.1	1181.5	1157.8	–	1117.7	1092.3	1073	1052.7
12500 kPa	1231.3	1205.5	1181.9	1158.2	1136.8	1118	1092.6	1073.3	1053
13000 kPa	1231.7	1205.9	1182.2	1158.5	1137.1	1118.3	1092.8	1073.6	1053.2
13400 kPa	–	–	–	–	1137.4	–	–	–	–
13500 kPa	1232.1	1206.2	1182.6	1158.8	–	1118.5	1093.2	1073.9	1053.5
14000 kPa	1232.5	1206.6	1183	1159.2	1137.7	1118.9	1093.4	1074.2	1053.8
14500 kPa	1232.9	1207	–	1159.5	1138	1119.2	1093.7	1074.4	1054.1
14600 kPa	–	–	1183.4	–	–	–	–	–	–
15000 kPa	1233.3	1207.4	1183.7	1159.8	1138.4	1119.4	1094	1074.8	1054.3
15400 kPa	–	–	–	–	–	1119.8	–	–	–
15500 kPa	1233.7	1207.8	1184.1	1160.2	1138.7	–	1094.3	1075	1054.6
15900 kPa	–	1208.2	–	–	–	1120	–	–	–
16000 kPa	1234.2	–	1184.4	1160.5	1139	–	1094.6	1075.3	1054.8
16500 kPa	1234.6	1208.6	1184.8	1160.9	1139.3	1120.4	1094.8	1075.6	1055.1
17000 kPa	1235	–	1185.1	1161.2	1139.7	1120.7	1095.1	1075.9	1055.3
17100 kPa	–	1209	–	–	–	–	–	–	–
17400 kPa	–	–	1185.4	–	–	–	–	–	–
17500 kPa	1235.4	1209.4	–	1161.6	1140	1121	1095.4	1076.1	1055.6
17900 kPa	–	–	–	1161.8	–	–	–	–	–
18000 kPa	1235.8	1209.8	1185.8	–	1140.3	1121.2	1095.7	1076.4	1055.8
18400 kPa	–	1210.2	–	1162.2	–	–	–	–	–
18500 kPa	1236.2	–	1186.1	–	1140.6	1121.5	1096	1076.7	1056.1
19000 kPa	1236.6	1210.6	1186.6	1162.6	1140.9	1121.9	1096.3	1077	1056.4
19400 kPa	–	–	–	–	1141.3	–	–	–	–
19500 kPa	1237	1211	1186.9	1163	–	1122.2	1096.6	1077.2	1056.6
20000 kPa	1237.5	1211.4	1187.4	1163.4	1141.9	1122.6	1096.9	1077.5	1057.1
